Experimental data: patent publication US5270319A, “5-hydroxy-2-pyrimidinylmethylene derivatives useful as antiinflammatory agents” (Warner-Lambert Company, priority 1992, dated 1993)

Assays:
[1] = system: Cyclooxygenase; test: ARBC whole cell cyclooxygenase assay (PGF2α formation in RBL-1 cells); format: cell-based, rat; conditions: A23187 (5 μM) stimulated, PGF2α formation by RIA
Method: (§1) A description of each procedure follows. ARBL/ARBC Whole Cell 5-Lipoxygenase and Cyclooxygenase Assays The rat basophilic leukemia cell line (RBL-1) was obtained from the American Type Culture Collection (Rockville, Md.). Radioimmunoassay (RIA) kits of LTB4 and PGF2α were obtained from Amersham (Arlington Heights, Ill.) and Seragen (Boston, Mass.), respectively. All tissue culture media were obtained from GIBCO (Grand Island, N.Y.). RBL-1 cells are grown in suspension culture in Eagle's minimum essential medium supplemented with 12% fetal bovine serum at 37° C. in an incubator supplied with air-5% carbon dioxide. Cells are harvested by centrifugation. They are washed with cold phosphate buffered saline pH 7.4 (PBS; NaCl, 7.1 g; NaHPO, 1.15 g; KHPO, 0.2 g; and KCl, 0.2 g/l). Cells are finally suspended in PBS containing 1.0 mM calcium at a density of […] cells/ml. Cells are incubated with and without test agent (in DMSO) (1% DMSO is without effect on arachidonic acid metabolism) for ten minutes at room temperature. Calcium ionophore A23187 (5 μM) is added and cells are incubated for seven minutes at 37° C. The reaction is stopped by chilling the tubes on ice for ten minutes. Cells are separated by centrifugation and the supernatant is stored at […]. Aliquots (100 μL) are analyzed for LTB4 and PGF2α using radioimmunoassay kits as provided by the supplier. Biochemical data obtained from this whole cell assay may be shown as IC50 s which are calculated as the amount of test compound causing 50% inhibition of LTB4 or PGF2α formation. The following Table exemplifies the data for the present invention.

[2] = biological target: T1, 5-Lipoxygenase (Rattus norvegicus, UniProt P12527); test: ARBL whole cell 5-lipoxygenase assay (LTB4 formation in RBL-1 cells); format: cell-based; conditions: A23187 (5 μM) stimulated, LTB4 formation by RIA, read-out: % Inhibition at 10 μM Conc, ARBL
T1 construct: host or cells: RBL-1 (rat basophilic leukemia)
T1 sequence (P12527 1-673): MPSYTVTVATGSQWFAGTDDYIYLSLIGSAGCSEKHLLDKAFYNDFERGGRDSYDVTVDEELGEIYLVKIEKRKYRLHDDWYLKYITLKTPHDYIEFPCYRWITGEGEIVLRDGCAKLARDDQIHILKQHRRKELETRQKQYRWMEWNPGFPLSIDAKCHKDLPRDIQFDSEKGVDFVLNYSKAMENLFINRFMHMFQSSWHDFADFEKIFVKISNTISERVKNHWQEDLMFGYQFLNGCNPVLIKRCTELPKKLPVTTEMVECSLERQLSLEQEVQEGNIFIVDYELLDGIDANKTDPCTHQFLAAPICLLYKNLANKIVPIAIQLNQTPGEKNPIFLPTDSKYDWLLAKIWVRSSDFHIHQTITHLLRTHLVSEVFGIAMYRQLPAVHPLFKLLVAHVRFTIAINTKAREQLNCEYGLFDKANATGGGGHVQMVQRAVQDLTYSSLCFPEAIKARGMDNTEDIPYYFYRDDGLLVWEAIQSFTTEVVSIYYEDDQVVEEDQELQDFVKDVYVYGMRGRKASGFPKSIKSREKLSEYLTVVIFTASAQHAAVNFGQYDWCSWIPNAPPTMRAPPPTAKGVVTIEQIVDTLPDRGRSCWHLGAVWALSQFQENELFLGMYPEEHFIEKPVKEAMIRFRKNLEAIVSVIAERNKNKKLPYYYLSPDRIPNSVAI
Method: as §1

SMILES	% Inhibition at 10 μM Conc, ARBC [1]	inhibition at 10 µM [2]
CC(C)(C)c1nc(C=C2SC(=S)NC2=O)nc(C(C)(C)C)c1O [Example 6, 5-[[4,6-Bis-(1,1-dimethylethyl)-5-hydroxy-2-pyrimidinyl]methylene]-2-thioxo-4-thiazolidinone]	81%	91%
CC(C)(C)c1nc(C=C2SC(=N)NC2=O)nc(C(C)(C)C)c1O [Example 7, 5-[[4,6-Bis-(1,1-dimethylethyl]-5-hydroxy-2-pyrimidinyl]methylene]-2-imino-4-thiazolidinone]	56%	32%
CC(C)(C)c1nc(C=C2SC(=O)NC2=O)nc(C(C)(C)C)c1O [Example 8]	68%	60%
CON1CCC(=Cc2nc(C(C)(C)C)c(O)c(C(C)(C)C)n2)C1=O [Example 15, 3-[[4,6-Bis-(1,1-dimethylethyl)-5-hydroxy-2-pyrimidinyl]methylene]-N-methoxy-pyrrolidin-2-one]	88%	46%
CC(C)(C)c1nc(C=C2CCOC2=O)nc(C(C)(C)C)c1O [Example 16]	93%	100%
